This is an account of results in patent US4994446A, “Drug system” (Ramot - University Authority for Applied Research and …, priority 1989, dated 1991).

pKd: −log10 of the molar value. Structures can show the parent of a compound that is named as a salt.

Assay [1] has as its system NMDA receptor channel. Put plainly: [3H]MK-801-receptor association kinetics, repeatedly washed rat cerebral cortex membranes. In kind it is binding. Here is the method: (§1) Binding assays were performed in triplicate at 25° C. with repeatedly washed rat cerebral cortex membranes (80 μg protein) as described in Biochem. ibid. Assays were carried out in the absence or in the presence of 10^-4 M AP-5, or in the presence of 10 μM MgCl2 together with 1 μM L-glutamate and 1 μM glycine. Nonspecific binding was determined in samples containing 10^-4 M PCP. Data were expressed as the specific binding of [^3 H]MK-801 and analyzed according to the two-step binding model of interactions between noncompetitive blockers and the NMDA receptor channel. The model assumes a first order diffusion of the ligand from the outside into the interior of the channel, followed by association of the ligand with its receptor sites. Under the two extreme conditions employed here, viz., binding of [^3 H]MK-801 in the presence of agonists (unlimited diffusion) and in the absence of agonists (limited diffusion) the time courses of receptor occupation should respectively follow pseudo first order (eq. 1) and first order (eq. 2) kinetics:
([RL]eq-[RL])/[RL]eq≡exp.-(k1k2[L]/kb -k- 1)t eq. 1
1-{Kd [RL]/[L](RT ]-[RL ]}=exp.-Kb t eq. 2
where L, RT, RLeq and RL are respectively the ligand, the total number of binding sites, the bound ligand at equilibrium and at time t. ka and kb are the forward and background diffusion constants; k1 and k- 1 are the second order on-rate and the first order off-rate constants for the binding process. The overall equilibrium binding constant (Kd) is given by K- 1·kb /k1·k2.
FIG. 1A illustrates the time course of association of [^3 H] 801 (5 nM) with the NMDA receptor channel. Binding was determined at 25° C. as a function of time in the absence and in the presence of glutamate and glycine or in the presence of AP-5; whereas 1B illustrates the observed time constants (Kobs) derived from the pseudo first order plots of the association of 2, 5 and 8.6 nM [^3 H] 801 in the presence of glutamate and glycine plotted as a function of the ligand concentration. FIG. 1C is a first order plot (eq. 2) of [^3 H] 801-receptor association in the absence of agonists determined with ligand concentrations of 2 nM and 8.6 nM.

In assay [2] the test system is NMDA receptor channel. The assay is described as follows: Dissociation of [3H]MK-801-receptor complexes, initiated by 100 μM unlabeled PCP. Format: binding, rat. The method, then: as §1
Samples were incubated at 25° C. with 8 nM [^3 H] 801 for 2 hr. The dissociation reaction was initiated by the addition of 100 μM unlabeled PCP. […] Reactions were terminated either immediately (zero time) or at the indicated times. Bo --amount of [^3 H]MK-801 bound at zero time. Bt --amount of [^3 H] 801 bound at time t.

For assay [3], the system named is NMDA receptor channel. The assay is described as follows: Equilibrium binding of [3H]MK-801 (Scatchard), rat cerebral cortex membranes. The note with it: for pKd: 4 hr at 25° C., read-out: Kd determined at equilibrium. The method, then: as §1
FIG. 2 left illustrates the equilibrium binding of [^3 H] 801. Binding of [^3 H] 801 as a function of its concentration was assayed after incubation for 4 hr at 25° C. in the absence or in the presence of glutamate and glycine. Also shown are data for [^3 H] 801 binding to the receptor measured after their incubation for 3 hr followed by an additional 1 hr of incubation in the presence of 100 μM AP-5. Data are expressed in the form of Scatchard plot.

Where [4] appears, read: 5 nM ligand, with glutamate and glycine, 25° C.
The mark [5] stands for this setting: presence of glutamate and glycine.

For `N[C@H](CCCP(=O)(O)O)C(=O)O` [AP-5, D(-)2-amino-5-phosphovaleric acid], in the assay on NMDA receptor channel [1] (AP-5 (10^-4 M) by itself, compared to control level), the “effect on rate of [3H]MK-801-receptor association” value is listed as “decreases the rates”. In addition, the “effect on rate of [3H]MK-801-receptor dissociation” value with NMDA receptor channel [2] (100 μM AP-5 by itself, compared to control level) was “decreases the rates”. The “effect on equilibrium binding of preequilibrated [3H]MK-801-receptor complexes” value in the assay with NMDA receptor channel [3] (3 hr incubation, then 1 hr with 100 μM AP-5) is listed as “did not alter the equilibrium binding”.
Turning to `C[C@]12N[C@H](Cc3ccccc31)c1ccccc12` [[^3 H]MK-801, (+) 5 methyl-10,11 dihydro-5H-dibenzo[a,d]cyclohepten-5,10-imine maleate], the “incubation time to reach equilibrium” value with NMDA receptor channel [1] (5 nM ligand, absence of exogenous agonists, 25° C.) was over 6 h. Besides, the “association t1/2” value in the assay on NMDA receptor channel [1] (setting [4]) was about 7 min. Besides, the “time to approach equilibrium” value with NMDA receptor channel [1] (setting [4]) fell in the range of 45 to 60 min. Moreover, in the assay with NMDA receptor channel [1] (absence of exogenous agonists, did not vary with ligand concentration), the “half times of the association reactions” value is 60 to 70 min. The “apparent off-rate time constant (k-1) from association” value in the assay on NMDA receptor channel [1] (presence of glutamate and glycine (FIG. 1B)) is 0.075 min⁻¹. Further, the pKd was 8.32 at NMDA receptor channel [1] (presence of glutamate and glycine, read-out: kinetically derived dissociation constant (Kd), ratio of off-rate and on-rate constants); 8.68 at NMDA receptor channel [3] (absence of glutamate and glycine); 8.38 at NMDA receptor channel [3] (setting [5]). For the same compound, the “increase in ligand-receptor binding immediately after onset of binding” value in the assay on NMDA receptor channel [1] (with glutamate and glycine vs control without) is ~ 9 times that of the control. Also, the dissociation rate constant in the assay with NMDA receptor channel [2] (setting [5]) is 0.1 min⁻¹.
